Source: patent publication US20250122181A1, “BENZIMIDAZOLES AS MODULATORS OF IL-17” (Janssen Pharmaceutica NV, priority 2021, published 2025)

Test system: IL-17A-induced G-CSF production in human normal keratinocyte (NHK)
Assay: NHK Assay: IL-17A-induced G-CSF production in human normal keratinocyte
Format: cell-based
Conditions: Homo sapiens, Keratinocyte, 24 h, IL-17A 5 ng/mL, simple average if tested more than once
Procedure: IL-17A acts directly on keratinocytes through binding to dimeric receptor IL-17RA/RC and drives the production of a number of inflammatory mediators known to be elevated in psoriasis lesional tissue. IL-17A small molecule inhibitors that block the IL-17A to interact with IL-17R would inhibit the IL-17A signaling in its targeted cells such as keratinocytes. The compound functional activity is evaluated for its impact on IL-17A-induced G-CSF production in human normal keratinocyte (NHK).
Adult normal human keratinocytes are cultured in keratinocyte growth medium (Lonza) in a flask till reaching ˜90% confluence, then cells are transferred to a 384-well plate at density of 3000-4000 cell/well. Recombinant human IL-17A (Gibco PHC9174) is pre-incubated with titrated compound or DMSO for 1 h at rt then added to the cell culture plate. The final concentration of IL-17A is 5 ng/mL and DMSO is 0.2%, in the culture containing 5% FBS. Cells are cultured/treated for 24 h at 37° C. Supernatants are collected and G-CSF production is measured through HTRF technology using Human G-CSF Kit (CisBio). G-CSF concentration was extrapolated from the standard curve and IC50 is determined using GraphPad Prism. Cell viability is also evaluated using CellTiter-Glo kit (Promega) and effect of compound on cell viability is compared to DMSO control.

Row | SMILES | IC50 [nM]
1 | CO[C@@H](CC(F)(F)F)[C@H](NC(=O)c1nonc1C1CC1)c1nc2cc(CN3C[C@@H](C(F)(F)F)NC3=O)ccc2[nH]1 (relative stereo) [Example 46, 4-Cyclopropyl-N-((1R*,2S*)-4,4,4-trifluoro-2-methoxy-1-(5-(((S)-2-oxo-4-(trifluoromethyl)imidazolidin-1-yl)methyl)-1H-benzo[d]imidazol-2-yl)butyl)-1,2,5-oxadiazole-3-carboxamide] | < 50
2 | CO[C@H](CC(F)(F)F)[C@H](NC(=O)c1nonc1C)c1nc2cc(CN3C[C@@H](C(F)(F)F)NC3=O)ccc2[nH]1 (relative stereo) [Example 90, 4-Methyl-N-((1R*,2R*)-4,4,4-trifluoro-2-methoxy-1-(5-(((S)-2-oxo-4-(trifluoromethyl)imidazolidin-1-yl)methyl)-1H-benzo[d]imidazol-2-yl)butyl)-1,2,5-oxadiazole-3-carboxamide] | > 100
3 | CO[C@@H](CC(F)(F)F)[C@H](NC(=O)c1nonc1C)c1nc2cc(CN3C[C@@H](C(F)(F)F)NC3=O)ccc2[nH]1 (relative stereo) [Example 91, 4-Methyl-N-((1R*,2S*)-4,4,4-trifluoro-2-methoxy-1-(5-(((S)-2-oxo-4-(trifluoromethyl)imidazolidin-1-yl)methyl)-1H-benzo[d]imidazol-2-yl)butyl)-1,2,5-oxadiazole-3-carboxamide] | < 50
4 | CO[C@H](CC(F)(F)F)[C@@H](NC(=O)c1nonc1C1CC1)c1nc2cc(CN3C[C@@H](C(F)(F)F)NC3=O)ccc2[nH]1 (single isomer, unassigned) [Example 45, 4-Cyclopropyl-N-((1S*,2R*)-4,4,4-trifluoro-2-methoxy--(5-(((S)-2-oxo-4-(trifluoromethyl)imidazolidin-1-yl)methyl)-1H-benzo[d]imidazol-2-yl)butyl)-1,2,5-oxadiazole-3-carboxamide] | 50 to 100
5 | COCC(c1ccc2[nH]c([C@H](COC(C)(C)C(F)(F)F)NC(=O)c3nonc3C)nc2c1)N1C[C@@](C)(C(F)(F)F)NC1=O (single isomer, unassigned) [Example 63, N—((R)-1-(5-((R*)-2-Methoxy-1-((S)-4-methyl-2-oxo-4-(trifluoromethyl)imidazolidin-1-yl)ethyl)-1H-benzo[d]imidazol-2-yl)-2-((1,1,1-trifluoro-2-methylpropan-2-yl)oxy)ethyl)-4-methyl-1,2,5-oxadiazole-3-carboxamide] | < 50
6 | Cc1nonc1C(=O)N[C@@H](COC(C)(C)C(F)(F)F)c1nc2cc([C@@H](C3CC3)N3CC(CC(F)(F)F)NC3=O)ccc2[nH]1 (single isomer, unassigned) [Example 88, N—((R)-1-(5-((R)-Cyclopropyl((R*)-2-oxo-4-(2,2,2-trifluoroethyl)imidazolidin-1-yl)methyl)-1H-benzo[d]imidazol-2-yl)-2-((1,1,1-trifluoro-2-methylpropan-2-yl)oxy)ethyl)-4-methyl-1,2,5-oxadiazole-3-carboxamide] | < 50
7 | COC[C@H](c1ccc2[nH]c([C@@H](NC(=O)c3nonc3C3CC3)[C@@H](C)OC3CC3)nc2c1)N1C[C@@H](C(F)(F)F)NC1=O [Example 42, N-((1R,2R)-2-Cyclopropoxy-1-(5-((S)-2-methoxy-1-((S)-2-oxo-4-(trifluoromethyl)imidazolidin-1-yl)ethyl)-1H-benzo[d]imidazol-2-yl)propyl)-4-cyclopropyl-1,2,5-oxadiazole-3-carboxamide] | < 50
8 | COC[C@H](c1ccc2[nH]c([C@@H](NC(=O)c3nonc3C3CC3)[C@@H](C)OC3CC3)nc2c1)N1CC(F)(F)CNC1=O [Example 43, N-((1R,2R)-2-Cyclopropoxy-1-(5-((S)-1-(5,5-difluoro-2-oxotetrahydropyrimidin-1(2H)-yl)-2-methoxyethyl)-1H-benzo[d]imidazol-2-yl)propyl)-4-cyclopropyl-1,2,5-oxadiazole-3-carboxamide] | < 50
9 | COC[C@H](c1ccc2[nH]c([C@@H](NC(=O)c3nonc3C)[C@@H](C)OC3CC3)nc2c1)N1CC(F)(F)CNC1=O [Example 65, N-((1R,2R)-2-Cyclopropoxy-1-(5-((S)-1-(5,5-difluoro-2-oxotetrahydropyrimidin-1(2H)-yl)-2-methoxyethyl)-1H-benzo[d]imidazol-2-yl)propyl)-4-methyl-1,2,5-oxadiazole-3-carboxamide] | < 50
10 | Cc1nonc1C(=O)N[C@H](c1nc2cc([C@@H](COC3CC3)N3CC(F)(F)CNC3=O)ccc2[nH]1)[C@@H](C)O[C@@H](C)C(F)(F)F [Example 66, N-((1R,2R)-1-(5-((S)-2-Cyclopropoxy-1-(5,5-difluoro-2-oxotetrahydropyrimidin-1(2H)-yl)ethyl)-1H-benzo[d]imidazol-2-yl)-2-(((S)-1,1,1-trifluoropropan-2-yl)oxy)propyl)-4-methyl-1,2,5-oxadiazole-3-carboxamide] | < 50
11 | C[C@H](O[C@H](C)[C@H](NC(=O)c1nonc1C1CC1)c1nc2cc([C@@H](COC3CC3)N3CC(F)(F)CNC3=O)ccc2[nH]1)C(F)(F)F [Example 67, N-((1R,2R)-1-(5-((S)-2-Cyclopropoxy-1-(5,5-difluoro-2-oxotetrahydropyrimidin-1(2H)-yl)ethyl)-1H-benzo[d]imidazol-2-yl)-2-(((S)-1,1,1-trifluoropropan-2-yl)oxy)propyl)-4-cyclopropyl-1,2,5-oxadiazole-3-carboxamide] | < 50
12 | C[C@H](O[C@H](C)[C@H](NC(=O)c1nonc1C1CC1)c1nc2cc([C@@H](COC3CC3)N3C[C@@H](C(F)(F)F)NC3=O)ccc2[nH]1)C(F)(F)F [Example 68, N-((1R,2R)-1-(5-((S)-2-Cyclopropoxy-1-((S)-2-oxo-4-(trifluoromethyl)imidazolidin-1-yl)ethyl)-1H-benzo[d]imidazol-2-yl)-2-(((S)-1,1,1-trifluoropropan-2-yl)oxy)propyl)-4-cyclopropyl-1,2,5-oxadiazole-3-carboxamide] | < 50
13 | [2H]C1([2H])N([C@@H](c2ccc3nc([C@H](COC(C)(C)C(F)(F)F)NC(=O)c4nonc4C4CC4)[nH]c3c2)C2CC2)C(=O)NCC1(F)F [Example 76, 4-Cyclopropyl-N—((R)-1-(5-((R)-cyclopropyl(5,5-difluoro-2-oxotetrahydropyrimidin-1(2H)-yl-6,6-d2)methyl)-1H-benzo[d]imidazol-2-yl)-2-((1,1,1-trifluoro-2-methylpropan-2-yl)oxy)ethyl)-1,2,5-oxadiazole-3-carboxamide] | < 50
14 | [2H]C1([2H])N([C@@H](c2ccc3nc([C@H](COC(C)(C)C(F)(F)F)NC(=O)c4nonc4C)[nH]c3c2)C2CC2)C(=O)NCC1(F)F [Example 77, N—((R)-1-(5-((R)-Cyclopropyl(5,5-difluoro-2-oxotetrahydropyrimidin-1(2H)-yl-6,6-d2)methyl)-1H-benzo[d]imidazol-2-yl)-2-((1,1,1-trifluoro-2-methylpropan-2-yl)oxy)ethyl)-4-methyl-1,2,5-oxadiazole-3-carboxamide] | < 50
15 | [2H]C1([2H])NC(=O)N([C@@H](c2ccc3[nH]c([C@H](COC(C)(C)C(F)(F)F)NC(=O)c4nonc4C4CC4)nc3c2)C2CC2)C([2H])([2H])C1(F)F [Example 78, 4-Cyclopropyl-N—((R)-1-(5-((R)-cyclopropyl(5,5-difluoro-2-oxotetrahydropyrimidin-1(2H)-yl-4,4,6,6-d4)methyl)-1H-benzo[d]imidazol-2-yl)-2-((1,1,1-trifluoro-2-methylpropan-2-yl)oxy)ethyl)-1,2,5-oxadiazole-3-carboxamide] | < 50
16 | [2H]C1([2H])NC(=O)N([C@@H](c2ccc3[nH]c([C@H](COC(C)(C)C(F)(F)F)NC(=O)c4ccnn4C(C)C)nc3c2)C2CC2)C([2H])([2H])C1(F)F [Example 79, N—((R)-1-(5-((R)-Cyclopropyl(5,5-difluoro-2-oxotetrahydropyrimidin-1(2H)-yl-4,4,6,6-d4)methyl)-1H-benzo[d]imidazol-2-yl)-2-((1,1,1-trifluoro-2-methylpropan-2-yl)oxy)ethyl)-1-isopropyl-1H-pyrazole-5-carboxamide] | < 50

Same assay, conditions: IL-17A 5 ng/mL, 24 h, simple average if tested more than once

Row | SMILES | IC50 [nM]
17 | COCC(c1ccc2[nH]c([C@H](COC(C)(C)C(F)(F)F)NC(=O)c3nonc3C)nc2c1)N1C[C@@](C)(C(F)(F)F)NC1=O (single isomer, unassigned) [Example 64, N—((R)-1-(5-((S*)-2-Methoxy-1-((S)-4-methyl-2-oxo-4-(trifluoromethyl)imidazolidin-1-yl)ethyl)-1H-benzo[d]imidazol-2-yl)-2-((1,1,1-trifluoro-2-methylpropan-2-yl)oxy)ethyl)-4-methyl-1,2,5-oxadiazole-3-carboxamide] | > 100
18 | Cc1nonc1C(=O)N[C@@H](COC(C)(C)C(F)(F)F)c1nc2cc([C@@H](C3CC3)N3CC(CC(F)(F)F)NC3=O)ccc2[nH]1 (single isomer, unassigned) [Example 89, N—((R)-1-(5-((R)-Cyclopropyl((S*)-2-oxo-4-(2,2,2-trifluoroethyl)imidazolidin-1-yl)methyl)-1H-benzo[d]imidazol-2-yl)-2-((1,1,1-trifluoro-2-methylpropan-2-yl)oxy)ethyl)-4-methyl-1,2,5-oxadiazole-3-carboxamide] | > 100
